From patent publication US9783499B2, “Quinoline derivatives and their applications” (Shenyang Pharmaceutical University, priority 2012, dated 2017)
Values after ≈ are worked out from the molar mass of the structure shown.

What was measured:
Type in all cases: cell-based
[1] = test system: H460 (human lung cancer cell); experiment: In vitro anti-tumor cellular activity (MTT), H460; conditions: for H460 IC50: 72 hours; for IC50: Homo sapiens, NCI-H460, 72 hours
Description: (§1) After pouring the cell dissociation buffer to the centrifugetube, nutrient solution was added to stop digestion. The centrifugetube were centrifuged for 10 min under 800 r/min, the liquid supernatant was removed, 5 mL culture solution was added, after mixing by pipetting the cell, took 10 μL cell suspension to the cell counting plat, and adjusted the cell concentration to 10^4/well. Among the 96 wells, A1 is empty, 100 μL of cell suspension were added to the other wells. The 96 well plates were incubated in the incubator for 24 h. […] The 96-well plates were placed in an incubator and cultivated for 72 hours. (3) The culture media containing the compounds in the 96-well plates was discarded, and the cells were washed with phosphate buffered solution (PBS) twice. Each well was added with 100 μL MTT (tetrazole) (0.5 mg/mL), and then placed in an incubator to incubate for 4 hours, after which MTT solution was discarded and 100 μL dimethyl sulfoxide was added thereto.

[2] = test system: HT-29 (colon cancer cell); experiment: In vitro anti-tumor cellular activity (MTT), HT-29; conditions: 72 hours; for IC50: Homo sapiens
Description: as §1

[3] = test system: MKN-45 (human gastric carcinoma cell); experiment: In vitro anti-tumor cellular activity (MTT), MKN-45; conditions: 72 hours; for IC50: Homo sapiens
Description: as §1

[4] = test system: SMMC-7721 (hepatoma cell); experiment: In vitro anti-tumor cellular activity (MTT), SMMC-7721; conditions: 72 hours; for IC50: Homo sapiens
Description: as §1

[5] = test system: MDA-MB-231 (human beast cancer cell); experiment: In vitro anti-tumor cellular activity (MTT), MDA-MB-231; conditions: 72 hours; for IC50: Homo sapiens
Description: as §1

[6] = test system: U87MG (Human malignant glioblastoma cell); experiment: In vitro anti-tumor cellular activity (MTT), U87MG; conditions: 72 hours; for IC50: Homo sapiens, U-87 MG
Description: as §1

Row | Molecule | H460 IC50 [1] [µg/mL] | HT-29 IC50 [2] [µg/mL] | MKN-45 IC50 [3] [µg/mL] | SMMC-7721 IC50 [4] [µg/mL] | MDA-MB-231 IC50 [5] [µg/mL] | U87MG IC50 [6] [µg/mL] | IC50 [1] [µg/mL] | IC50 [2] [µg/mL] | IC50 [3] [µg/mL] | IC50 [4] [µg/mL] | IC50 [5] [µg/mL] | IC50 [6] [µg/mL]
1 | COc1cc2c(Oc3ccc(NC(=O)NN=Cc4ccc(Cl)cc4Cl)cc3F)ccnc2cc1OCCCN1CCOCC1 [Example 20, (E)-N^1-(3-fluoro-4-(6-methoxy-7-(3-(morpholin-4-yl)propoxy)quinoline-4-yloxy)phenyl)-N^4-(2,4-dichlorobenzaldehyde)semicarbazone] | 1.1 | 0.84 | 1.5 | 6.7 | 1.7 | 4.2 | – | – | – | – | – | –
2 | COc1cc2c(Oc3ccc(N(/N=C/c4c(O)ccc5ccccc45)C(N)=O)cc3F)ccnc2cc1OCCCN1CCC(C)CC1 [Example 21, (E)-N^1-(3-fluoro-4-(6-methoxy-7-(3-(4-methylpiperidin-1-yl)propoxy)quinoline-4-yloxy)phenyl)-N^4-(2-hydroxy-1-naphthaldehyde)semicarbazone] | – | – | – | – | – | – | 0.16 (≈ 0.245 µM) | 0.065 (≈ 0.0997 µM) | 0.1 (≈ 0.153 µM) | 0.98 (≈ 1.5 µM) | 0.087 (≈ 0.133 µM) | 0.89 (≈ 1.37 µM)
3 | COc1cc2c(Oc3ccc(NC(=O)N/N=C/c4ccc(F)c(F)c4)cc3F)ccnc2cc1OCCCN1CCCC1 [Example 22, (E)-N^1-(3-fluoro-4-(6-methoxy-7-(3-(pyrrolidin-1-yl)propoxy)quinoline-4-lyoxy)phenyl)-N^4-(3,4-difluorobenzaldehyde)semicarbazone] | 0.29 | 0.19 | 0.37 | 1.2 | 0.31 | 0.66 | – | – | – | – | – | –
4 | COc1cc2c(Oc3ccc(N(/N=C/c4cc(C)c(O)c(C)c4)C(N)=O)cc3F)ccnc2cc1OCCCN1CCOCC1 [Example 27, (E)-N^1-(3-fluoro-4-(6-methoxy-7-(3-(morpholin-4-yl)propoxy)quinoline-4-yloxy)phenyl)-N^4-(3,5-dimethyl-4-hydroxybenzaldehyde)semicarbazone] | – | – | – | – | – | – | 1.3 (≈ 2.1 µM) | 0.59 (≈ 0.955 µM) | 0.2 (≈ 0.324 µM) | 0.53 (≈ 0.858 µM) | 0.96 (≈ 1.55 µM) | 1.4 (≈ 2.27 µM)
5 | COc1cc2c(Oc3ccc(NC(=S)N/N=C/c4ccccc4[N+](=O)[O-])cc3F)ccnc2cc1OCCCN1CCCC1 [Example 32] | 0.19 | 0.24 | 0.33 | 0.77 | 0.13 | 1.2 | – | – | – | – | – | –
6 | COc1cc2c(Oc3ccc(NC(=S)N/N=C/c4ccccc4)cc3F)ccnc2cc1OCCCN1CCCC1 [Example 36, (E)-N^1-(3-fluoro-4-(6-methoxy-7-(3-(pyrrolidin-1-yl)propoxy)quinoline-4-yloxy)phenyl)-N^4-(benzaldehyde)thiosemicarbazone] | 0.034 | 0.012 | 0.11 | 0.35 | 0.048 | 0.29 | – | – | – | – | – | –
7 | COc1cc2c(Oc3ccc(NC(=S)N/N=C/c4ccccc4)cc3F)ccnc2cc1OCCCN1CCC(C)CC1 [Example 37, (E)-N^1-(3-fluoro-4-(6-methoxy-7-(3-(4-methylpiperidin-1-yl)propoxy)quinoline-4-yloxy)phenyl)-N^4-(benzaldehyde)thiosemicarbazone] | 0.089 | 0.13 | 0.56 | 0.43 | 0.13 | 0.50 | – | – | – | – | – | –
8 | COc1cc2c(Oc3ccc(NC(=S)N/N=C/c4ccccc4)cc3F)ccnc2cc1OCCCN1CCOCC1 [Example 38, (E)-N^1-(3-fluoro-4-(6-methoxy-7-(3-(morpholin-4-yl)propoxy)quinoline-4-yloxy)phenyl)-N^4-(benzaldehyde)thiosemicarbazone] | 0.16 | 0.28 | 0.11 | 1.4 | 0.18 | 0.90 | – | – | – | – | – | –
9 | COc1cc2c(Oc3ccc(NC(=S)N/N=C/c4ccccc4)cc3F)ccnc2cc1OCCCN1CCN(C)CC1 [Example 39, (E)-N^1-(3-fluoro-4-(6-methoxy-7-(3-(4-methyl-1-piperazinyl)propoxy)quinoline-4-yloxy)phenyl)-N^4-(benzaldehyde)thiosemicarbazone] | 1.1 | 0.94 | 0.59 | 1.7 | 0.97 | 1.6 | – | – | – | – | – | –
10 | COc1cc2c(Oc3ccc(N(/N=C/c4ccc(F)cc4)C(N)=S)cc3F)ccnc2cc1OCCCN1CCOCC1 [Example 45, (E)-N^1-(3-fluoro-4-(6-methoxy-7-(3-(morpholin-4-yl)propoxy)quinoline-4-yloxy)phenyl)-N^4-(4-fluorobenzaldehyde)thiosemicarbazone] | – | – | – | – | – | – | 0.11 (≈ 0.181 µM) | 0.19 (≈ 0.313 µM) | 0.37 (≈ 0.609 µM) | 1 (≈ 1.65 µM) | 0.17 (≈ 0.28 µM) | 0.9 (≈ 1.48 µM)
11 | COc1cc2c(Oc3ccc(C=NNC(=O)Nc4ccc(Cl)c(C(F)(F)F)c4)cc3F)ccnc2cc1OCCCN1CCCCC1 [Example 46] | 0.33 | 0.45 | 0.23 | 0.69 | 0.25 | 1.2 | – | – | – | – | – | –
12 | COc1cc2c(Oc3ccc(C=NNC(=O)Nc4cccc(Br)c4)cc3F)ccnc2cc1OCCCN1CCOCC1 [Example 54, (E)-N^1-(3-bromophenyl)-N^4-(3-fluoro-4-(6-methoxy-7-(3-(morpholin-4-yl)propoxy)quinoline-4-yloxy)benzaldehyde)semicarbazone] | 1.5 | 1.3 | 2.0 | 2.7 | 0.96 | 1.8 | – | – | – | – | – | –
13 | COc1cc2c(Oc3ccc(C=NNC(=S)Nc4ccc(Cl)c(C(F)(F)F)c4)cc3F)ccnc2cc1OCCCN1CCC(C)CC1 [Example 64, (E)-N^1-[4-chloro-3-(trifluoromethyl)phenyl]-N^4-(3-fluoro-4-(6-methoxy-7-(3-(4-methylpiperidin-1-yl)propoxy)quinoline-4-yloxy)benzaldehyde)thiosemicarbazone] | 0.56 | 0.34 | 0.65 | 1.0 | 0.98 | 1.7 | – | – | – | – | – | –
14 | COc1cc2c(Oc3ccc(/C=N/NC(=S)Nc4cccc(Br)c4)cc3F)ccnc2cc1OCCCN1CCOCC1 [Example 65, (E)-N^1-(3-bromophenyl)-N^4-(3-fluoro-4-(6-methoxy-7-(3-(morpholin-4-yl)propoxy)quinoline-4-yloxy)benzaldehyde)thiosemicarbazone] | 2.4 | 1.9 | 4.8 | 2.8 | 2.1 | 3.4 | – | – | – | – | – | –
15 | (E)-N^1-(3,5-dichlorophenyl)-N^4-(3-fluoro-4-(6-methoxy-7-(3-(piperidin-1-yl)propoxy)quinolin-4-yloxy)benzylidene)thiosemicarbazide [Example 61] | 0.054 | 0.076 | 0.15 | 0.22 | 0.092 | 0.21 | – | – | – | – | – | –
16 | (E)-N^1-(3-fluoro-4-(6-methoxy-7-(3-(4-methylpiperidin-1-yl)propoxy)quinoline-4-yloxy)phenyl)-N^4-(2-chloro-4-fluorobenzaldehyde)semicarbazone [Example 13] | 0.097 | 0.16 | 0.27 | 0.29 | 0.16 | 0.33 | – | – | – | – | – | –
17 | (E)-N^1-(3-fluoro-4-(6-methoxy-7-(3-(piperidin-1-yl)propoxy)quinolin-4-yloxy)phenyl)-N^4-(3,4-difluorobenzylidene)thiosemicarbazide [Example 31] | 0.041 | 0.013 | 0.11 | 0.39 | 0.059 | 0.22 | – | – | – | – | – | –
18 | (E)-N^1-(3-fluoro-4-(6-methoxy-7-(3-(piperidin-1-yl)propoxy)quinoline-4-yloxy)phenyl)-N^4-(2,4-dichlorobenzaldehyde)thiosemicarbazone [Example 41] | 0.097 | 0.13 | 0.10 | 0.66 | 0.088 | 0.54 | – | – | – | – | – | –
19 | (E)-N^1-(3-fluoro-4-(6-methoxy-7-(3-(piperidin-1-yl)propoxy)quinoline-4-yloxy)phenyl)-N^4-(2-nitrobenzaldehyde)thiosemicarbazone [Example 34] | 0.089 | 0.076 | 0.12 | 0.24 | 0.077 | 0.19 | – | – | – | – | – | –
